pIC50: −log10 of the molar value.
Experiments:
[1] = Inhibition of recombinant Plasmodium falciparum NDH2 expressed in Escherichia coli ANN0222 by spectrophotometry
Plasmodium falciparum = assay: Antimalarial activity against blood stage form of Plasmodium falciparum 3D7 infected in human erythrocytes after 48 hrs by SYBR Green-based fluorometry; format: functional, organism-based; details: 3D7, 48 h

Structure (SMILES) | pIC50 [1] | pIC50 (Plasmodium falciparum)
O=C(Nc1ccc(F)c(F)c1)C1CCC(Cn2cnc3ccccc3c2=O)CC1 (stereo unspecified) | 5.87 | 5.68
CSc1nc2cc(Oc3ccc(Cl)c4ccccc34)c(Cl)cc2[nH]1 | 5.98 | 5.68
CCCCCCCCCCCCc1cc(=O)c2ccccc2n1O | 7.15 | 
CC(C)(Cc1cc(=O)c2ccccc2[nH]1)C1CCCCC1 | 7.11 | 5.42
CCn1cc(C(=O)NCc2ccc(Cl)cc2)c(=O)c2cc(F)c(N3CCN(C(=O)c4ccco4)CC3)cc21 | 6.53 | 5.30
O=C1NC(=O)N(C2CCCCC2)C(=O)/C1=C/c1c(-c2ccccc2)[nH]c2ccccc12 | 6.29 | 5.25

Source: ChEMBL document CHEMBL2034827, “Identification of novel antimalarial chemotypes via chemoinformatic compound selection methods for a high-throughput screening program against the novel malarial target, PfNDH2: increasing hit rate via virtual screening methods” (J Med Chem, 2012)
